Molecular target: D(2) dopamine receptor (Rattus norvegicus, UniProt P61169)
Sequence (P61169 whole entry): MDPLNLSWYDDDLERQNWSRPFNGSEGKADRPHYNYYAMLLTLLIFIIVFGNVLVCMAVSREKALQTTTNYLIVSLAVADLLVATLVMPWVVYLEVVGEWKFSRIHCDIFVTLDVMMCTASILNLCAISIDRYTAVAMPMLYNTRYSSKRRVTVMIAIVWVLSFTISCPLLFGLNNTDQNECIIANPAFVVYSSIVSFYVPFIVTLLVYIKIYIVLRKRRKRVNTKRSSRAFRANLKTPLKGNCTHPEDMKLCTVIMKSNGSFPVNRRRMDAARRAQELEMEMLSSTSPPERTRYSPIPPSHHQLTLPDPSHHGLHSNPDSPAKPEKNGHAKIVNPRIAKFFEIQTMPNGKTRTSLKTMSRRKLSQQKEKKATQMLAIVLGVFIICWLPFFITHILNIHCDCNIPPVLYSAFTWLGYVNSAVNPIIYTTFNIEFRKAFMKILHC

| Ki | SMILES |
| --- | --- |
| 2710 nM | O=C(c1ccc(F)cc1)C1CCN(CCn2c(=O)[nH]c3ccccc3c2=O)CC1 [3-(2-{4-[(4-fluorophenyl)carbonyl]piperidin-1-yl}ethyl)-1,2,3,4-tetrahydroquinazoline-2,4-dione] |
| 1770 nM | Cc1ccc(N(CC2=NCCN2)c2cccc(O)c2)cc1 [SMR000059054] |

| SMILES | Ki |
| --- | --- |
| CC(C)NCC(O)COc1cccc2[nH]ccc12 (stereo not drawn) [LB-46] | > 10000 nM |
